Where “and” joins values, the source holds several entries; their conditions need not be identical. Equal entries are not always repeated. Where a SMILES comes first, the peptide text is derived from it. [ ]: non-standard residue; d: D form. Hyp = O=C(O)[C@@H]1C[C@@H](O)CN1
Columns and labels:
[1] = system: IL-1 beta/IL-1F2; assay: Example 8 main study Luminex, LPS hPBMCs: IL-1 beta/IL-1F2; type: cell-based, human
Procedure: (§1) Human PBMCs were pretreated with YY-101, YDE-011, YDE-043 or reference compound; Xiidra® at various concentration (ranging from […] to 500 nM) for 2 h before stimulation. An equal volume of 0.5% DMSO was used as a vehicle control. Then, the cells were treated with LPS at 5 ug/ml, which was selected based on the pilot study. The supernatants from treated cells were harvested at 24 h and placed in a 96 well for Luminex cytokine & chemokine profiling using a Luminex 200 multiplex assay (Luminex; R&D system, USA).
(§2) The main study arm with triplicate wells per group in a 24-well plate: • 1. Blank • 2. PBMC: 0.5% DMSO • 3. PBMC+LPS (5 ug/ml) • 4. PBMC+YY-101 500 nM • 5. PBMC+YY-101 50 nM • 6. PBMC+YY-101 5 nM • 7. PBMC+YY-101 0.5 nM • 8. PBMC+LPS (5 ug/ml)+Xiidra® 500 nM • 9. PBMC+LPS (5 ug/ml)+Xiidra® 50 nM • 10. PBMC+LPS (5 ug/ml)+Xiidra® 5 nM • 11. PBMC+LPS (5 ug/ml)+Xiidra® 0.5 nM • 12. PBMC+LPS (5 ug/ml)+Xiidra® 0.05 nM • 13. PBMC+LPS (5 ug/ml)+Xiidra® 0.005 nM • 14. PBMC+LPS (5 ug/ml)+YY-101 500 nM • 15. PBMC+LPS (5 ug/ml)+YY-101 50 nM • 16. PBMC+LPS (5 ug/ml)+YY-101 5 nM • 17. PBMC+LPS (5 ug/ml)+YY-101 0.5 nM • 18. PBMC+LPS (5 ug/ml)+YY-101 0.05 nM • 19. PBMC+LPS (5 ug/ml)+YY-101 0.005 nM • 20. PBMC+LPS (5 ug/ml)+YDE-011 500 nM • 21. PBMC+LPS (5 ug/ml)+YDE-011 50 nM • 22. PBMC+LPS (5 ug/ml)+YDE-011 5 nM • 23. PBMC+LPS (5 ug/ml)+YDE-011 0.5 nM • 24. PBMC+LPS (5 ug/ml)+YDE-011 0.05 nM • 25. PBMC+LPS (5 ug/ml)+YDE-011 0.005 nM • 26. PBMC+LPS (5 ug/ml)+YDE-043 500 nM • 27. PBMC+LPS (5 ug/ml)+YDE-043 50 nM • 28. PBMC+LPS (5 ug/ml)+YDE-043 5 nM • 29. PBMC+LPS (5 ug/ml)+YDE-043 0.5 nM • 30. PBMC+LPS (5 ug/ml)+YDE-043 0.05 nM • 31. PBMC+LPS (5 ug/ml)+YDE-043 0.005 nM
(§3) Multiplex assay was used to measure 30 cytokines and chemokines. The 1:200 diluted cell supernatant and serial dilution of the standard were dispensed into a 96 well plate at 50 ul/well. Then, the pre-mixed cocktail of antibody-coated magnetic beads was dispensed at 50 ul/well and incubated at room temperature for 2 h in a horizontal orbital microplate shaker at 800±500 rpm. The beads were washed using a magnetic device to prevent loss. The biotin-antibody was dispensed in 50 ul of each well and incubated at room temperature for 1 h in a shaker at 800±500 rpm. After washing, streptavidin-PE was added at 50 ul/well and incubated at room temperature for 30 min in a shaker under the same conditions. Finally, after washing, wash buffer (100 ul/well) was added to the plate and incubated in a shaker for 2 min. The Luminex™ 200 setting were set according to the manufacturer's protocol. The data was calculated with a standard five-parameter logistic nonlinear regression analysis of the data (xPonent software 4.2, USA). Results were presented as concentration (ng/ml or pg/ml).

[2] = system: MMP-9; assay: Example 8 main study Luminex, LPS hPBMCs: MMP-9; type: cell-based, human; conditions: PBMC + LPS(5 ug/ml)
Procedure: as §1, §2, §3

[3] = PBMC + LPS(5 ug/ml) + test article 0.005 nM, Mean
[4] = PBMC + LPS(5 ug/ml) + test article 0.005 nM, individual replicates
[5] = PBMC + LPS(5 ug/ml) + test article 0.05 nM, Mean
[6] = PBMC + LPS(5 ug/ml) + test article 0.05 nM, individual replicates
[7] = PBMC + LPS(5 ug/ml) + test article 0.5 nM, Mean
[8] = PBMC + LPS(5 ug/ml) + test article 0.5 nM, individual replicates
[9] = PBMC + LPS(5 ug/ml) + test article 5 nM, Mean
[10] = PBMC + LPS(5 ug/ml) + test article 5 nM, individual replicates
[11] = PBMC + LPS(5 ug/ml) + test article 50 nM, Mean
[12] = PBMC + LPS(5 ug/ml) + test article 50 nM, individual replicates
[13] = PBMC + LPS(5 ug/ml) + test article 500 nM, Mean
[14] = PBMC + LPS(5 ug/ml) + test article 500 nM, individual replicates
[15] = test article 0.005 nM, single replicates
[16] = test article 0.05 nM, single replicates
[17] = test article 0.5 nM, single replicates
[18] = test article 5 nM, single replicates
[19] = test article 50 nM, single replicates
[20] = test article 500 nM, single replicates

## CC(C)C[C@H](NC(=O)CNC(=O)[C@H](CC(C)C)NC(=O)[C@H](CCC(N)=O)NC(=O)CNC(=O)[C@@H]1C[C@@H](O)CN1)C(=O)N[C@@H](C)C(=O)NCC(=O)N1CCC[C@H]1C(=O)N[C@@H](CCCCN)C(=O)O [YDE-011] (H-[Hyp]GQLGLAGPK-OH)
[1]; [3]
  IL-1 beta/IL-1F2 Concentration: 5171.7 pg/mL
  IL-1 beta/IL-1F2 MFI: 94.5
[1]; [4]
  IL-1 beta/IL-1F2 Concentration: 5350.1 pg/mL and 5023.0 pg/mL and 5141.9 pg/mL
  IL-1 beta/IL-1F2 MFI: 97.5 and 92.0 and 94.0
[1]; [5]
  IL-1 beta/IL-1F2 Concentration: 5836.1 pg/mL
  IL-1 beta/IL-1F2 MFI: 105.7
[1]; [6]
  IL-1 beta/IL-1F2 Concentration: 5796.4 pg/mL and 6094.1 pg/mL and 5617.8 pg/mL
  IL-1 beta/IL-1F2 MFI: 105.0 and 110.0 and 102.0
[1]; [7]
  IL-1 beta/IL-1F2 Concentration: 4864.5 pg/mL
  IL-1 beta/IL-1F2 MFI: 89.3
[1]; [8]
  IL-1 beta/IL-1F2 Concentration: 4844.7 pg/mL and 4963.6 pg/mL and 4785.3 pg/mL
  IL-1 beta/IL-1F2 MFI: 89.0 and 91.0 and 88.0
[1]; [9]
  IL-1 beta/IL-1F2 Concentration: 4350.3 pg/mL
  IL-1 beta/IL-1F2 MFI: 80.7
[1]; [10]
  IL-1 beta/IL-1F2 Concentration: 3539.2 pg/mL and 4250.8 pg/mL and 5260.9 pg/mL
  IL-1 beta/IL-1F2 MFI: 67.0 and 79.0 and 96.0
[1]; [11]
  IL-1 beta/IL-1F2 Concentration: 4786.7 pg/mL
  IL-1 beta/IL-1F2 MFI: 88.0
[1]; [12]
  IL-1 beta/IL-1F2 Concentration: 5558.3 pg/mL and 5617.8 pg/mL and 3183.9 pg/mL
  IL-1 beta/IL-1F2 MFI: 101.0 and 102.0 and 61.0
[1]; [13]
  IL-1 beta/IL-1F2 Concentration: 4262.6 pg/mL
  IL-1 beta/IL-1F2 MFI: 79.2
[1]; [14]
  IL-1 beta/IL-1F2 Concentration: 5796.4 pg/mL and 2681.1 pg/mL and 4310.2 pg/mL
  IL-1 beta/IL-1F2 MFI: 105.0 and 52.5 and 80.0
[2]; test article 0.005 nM, Mean
  Concentration (pg/ml), MMP-9: 4251.7 pg/mL
  MFI (Bead name: MMP-9): 29.8
[2]; [15]
  Concentration (pg/ml), MMP-9: 4148.1 pg/mL and 4612.9 pg/mL and 3994.2 pg/mL
  MFI (Bead name: MMP-9): 29.5 and 31.0 and 29.0
[2]; test article 0.05 nM, Mean
  Concentration (pg/ml), MMP-9: 4509.4 pg/mL
  MFI (Bead name: MMP-9): 30.7
[2]; [16]
  Concentration (pg/ml), MMP-9: 4612.9 pg/ml (2×) and 4302.5 pg/ml
  MFI (Bead name: MMP-9): 31.0 (2×) and 30.0
[2]; test article 0.5 nM, Mean
  Concentration (pg/ml), MMP-9: 3435.2 pg/mL
  MFI (Bead name: MMP-9): 27.2
[2]; [17]
  Concentration (pg/ml), MMP-9: 3384.2 pg/mL and 3688.0 pg/mL and 3233.2 pg/mL
  MFI (Bead name: MMP-9): 27.0 and 28.0 and 26.5
[2]; test article 5 nM, Mean
  Concentration (pg/ml), MMP-9: 3299.3 pg/mL
  MFI (Bead name: MMP-9): 26.7
[2]; [18]
  Concentration (pg/ml), MMP-9: 1907.3 pg/mL and 3688.0 pg/mL and 4302.5 pg/mL
  MFI (Bead name: MMP-9): 22.0 and 28.0 and 30.0
[2]; test article 50 nM, Mean
  Concentration (pg/ml), MMP-9: 2555.4 pg/mL
  MFI (Bead name: MMP-9): 24.2
[2]; [19]
  Concentration (pg/ml), MMP-9: 2636.1 pg/mL and 3688.0 pg/mL and 1342.1 pg/mL
  MFI (Bead name: MMP-9): 24.5 and 28.0 and 20.0
[2]; test article 500 nM, Mean
  Concentration (pg/ml), MMP-9: 2776.4 pg/mL
  MFI (Bead name: MMP-9): 24.8
[2]; [20]
  Concentration (pg/ml), MMP-9: 4612.9 pg/mL and 931.9 pg/mL and 2784.3 pg/mL
  MFI (Bead name: MMP-9): 31.0 and 18.5 and 25.0
